According to patent US20220213156A1, “Peptides for use in therapy or prophylaxis of Herpesviridae-infections” (priority 2019, published 2022):
Where two headings read alike, the source gives them in different places. Residues, ends and D or L forms follow the SMILES beside them.

System: zebrafish embryos
Format: in vivo
Conditions: exposure from 6-7 hpf
Procedure: To test HD5 (1-9) (SEQ ID No. 1) for toxicity and to assess its effect on embryonic development in zebrafish, embryos obtained from natural crosses of wildtype TE fish were used. After mating, embryos were incubated at 28° C. until 6 h postfertilization (hpf). Triplicates of five embryos each were then placed in wells of a 96-well plate containing 200 μl of different peptide concentrations. HD5 (1-9) (SEQ ID No. 1) dissolved in PBS was diluted in normal embryo medium (250 mg/L Instant Ocean salt, 1 mg/L methylene blue in reverse osmosis water adjusted to pH 7 with NaHCO3) (Muller et al., “Differential diffusivity of Nodal and Lefty underlies a reaction-diffusion patterning system”; Science 336 (6082):721-724, 2012). The concentrations tested were 25 μM, 75 μM, 125 μM and 250 μM, and the concentration of PBS solvent was adjusted for each control group. At peptide concentrations of 75 μM and above we observed granulae in some wells, which could represent peptide accumulations. As a control, embryos were additionally incubated in 25 μg/ml cycloheximide (C4859, Sigma-Aldrich). After 13 hpf, 24 hpf and 48 hpf a microscopic phenotype analysis was performed. For each time point embryos were automatically imaged using an ACQUIFER Imaging Machine. For the phenotype analysis at 48 hpf, the larvae were manually dechorionated and anaesthetized with 2% tricaine methane-sulfonate (A5040-25G, Sigma-Aldrich). Images were acquired on an Axio Zoom.V16 microscope (ZEISS).
As a first test of HD5 (1-9) (SEQ ID No. 1) toxicity in vivo, as well as to elucidate potential effects of the peptide on embryonic development, experiments with zebrafish embryos were performed (He et al., 2014). Embryos were treated with HD5 (1-9) (SEQ ID No. 1) at concentrations of 25 μM, 75 μM, 125 μM and 250 μM starting at 6-7 h post fertilization (hpf), which is the time point recommended by pharmaceutical company-utilized assays to assess toxic effects of compounds on early embryonic development (Ball et al., 2014). Phenotypes were analyzed at 13.24 and 48 hpf (data not shown). […] Impaired development at 250 μM peptide exposure was also evident over the whole observation period, leading to the death of 11 embryos and 4 embryos having severe developmental delays by 48 hpf.

## C[C@H](N)C(=O)N[C@H](C(=O)N[C@@H](CS)C(=O)N[C@@H](Cc1ccc(O)cc1)C(=O)N[C@@H](CS)C(=O)N[C@@H](CCCNC(=N)N)C(=O)N[C@H](C(=O)NCC(=O)N[C@@H](CCCNC(=N)N)C(=O)O)[C@@H](C)O)[C@@H](C)O [HD5 (1-9), ATCYCRTGR] (H-ATCYCRTGR-OH; N-terminus and C-terminus assumed)
25 μM or 75 μM
  embryonic development: developed normally
125 μM
  embryonic development: approximately half of the embryos having no alterations
250 μM
  death of embryos by 48 hpf: 11 embryos
  embryo death by 13 hpf: half of the embryos had died
  embryos having severe developmental delays by 48 hpf: 4 embryos
